Data as given in patent US20040005648A1, “PYK2 related products and methods” (Sugen, Inc., priority 1994, published 2004).
Entries after “also recorded” stand apart in the source; their conditions may differ. Where two headings read alike, the source gives them in different places.

Assays:
[1] = system: Shc; test: Tyrosine phosphorylation of Shc in stimulated PC12 cells (anti-Shc immunoprecipitation, anti-phosphotyrosine immunoblot); assay type: cell-based, rat; conditions: for effect on carbachol induced tyrosine phosphorylation of Shc: antagonist
Method: Tyrosine phosphorylation of Shc in response to bradykinin, carbachol, PMA and other stimuli was also measured. Quiescent PC12 cells were stimulated for 5 min at 37° C. with bradykinin (1AM), carbachol (1 mM), KC1 (75 mM), PMA (1.6pM), NGF (100 ng/ml), or left unstimulated (−). The cells were also stimulated with carbachol (1 mM) or potassium chloride (75 mM) in the presence of 3 mM EGTA. Stimulations with DMPP (100 μM) or muscarine (1 mM) were preformed under the same conditions. […] The Shc proteins were immunoprecipitated with anti-Shc antibodies, the immunoprecipitates were resolved by SDS-PAGE (8%1, transferred to nitrocellulose and immunoblotted with anti-phosphotyrosine antibodies.

[2] = system: PYK2; test: Tyrosine phosphorylation of PYK2 in stimulated PC12 cells (anti-PYK2 immunoprecipitation, anti-phosphotyrosine immunoblot); assay type: cell-based, rat
[3] = system: Kv1.2 channel; conditions: after 20 min incubation; as previously shown (Huang et al.); cited from earlier work
[4] = system: Kv1.2 channel; test: Kv1.2 currents in microinjected Xenopus oocytes, two microelectrode voltage-clamp; assay type: cell-based, Xenopus laevis; conditions: for inhibition of outward current: 8 min after addition of 100 nM PMA
Method: In vitro capped RNA transcripts of Kv1.2, PYK2 and PKN were synthesized from linearized plasmids DNA templates utilizing the mMESSAGE MMACHINE kit (Ambion), following the supplier's protocols. The products of the transcription reaction (cRNAs) were diluted in RNAse-free water and stored at −70° C. Expression of the RNAs was done by injection of 50nl of RNA into defolliculated stage V and VI oocytes from Xenopus laevis (Iverson et al., J. Neurosc. 10, 2903-2916, 1990). The injected oocytes were incubated for 2-3 days at 20° C. in L15 solution (1:2 dilution of Gibco's Leibovitz L15 medum in H20, with 50U/ml nystatin, 0.1 mg/ml gentamycin, 30 mM HEPES buffer, pH 7.3-7.4, filtered through a […] membrane). Electrophysiological Recording and analysis. Ionic currents were recorded with a two microelectrode voltage-clamp as described (Iverson et al., suDra). The current were low-pass filtered KHz using an 8-pole Bessel filter and stored in a 80286 microcomputer using the pclamp acquisition system (Axon Instruments). The data was analyzed with the clamp fit pro-rams of the pCIamp system (Axon Instruments). All recording were performed at room temperature ([…]). The recording chamber was continually perfused with recording solution. To avoid contamination of the oocyte by Ca+^2-activated Cl^− currents low Cl^− recording solution was used (96 mM Na+, glutamate, 2 mM K^+ glutamate, 0.5 mM CaCl2, 5 mM MgCl2, 5 mM HEPES buffer). The K^+ currents were elicited in depolarizinc, steps from −100 to +40 mv in 10 mV increments every 15 seconds.
Kv1.2 currents from oocytes microinjected with either Kv1.2 mRNA, Kv1.2 and PYK2 mRNAs, or Kv1.2 and a kinase negative mutant of PYK2 mRNAs (PKN). Currents were elicited in response to depolarizing steps from −100 to +30 mV increments from a holding potential of −110 mV. Representative traces of Kv1.2 channels before and after bath application of 100 nM PMA at the annotated time (8 and 20 minutes) in the same cell.
Suppression of Kv1.2 currents in response to PMA is blocked by a kinase negative PYK2 mutant (PKN). […]

[5] = system: PYK2; test: Tyrosine phosphorylation of PYK2 in transiently transfected 293 cells; assay type: cell-based, human; conditions: PMA 1.6 μM, calcium ionophore 6 μM
Method: We examined the possibility whether PYK2 can tyrosine phosphorylate the Kv1.2 channel and regulate its function. In order to test this possibility, we expressed in 293 cells the Kv1.2 protein, Kv1.2 together with PYK2, and as a control Kv1.2 with a kinase negative PYK2 mutant (PKN) or with the protein tyrosine kinase Fak. The cells were grown for 24 hours in medium containing 0.2% serum and then stimulated with PMA (1.6 μM), calcium ionophore (6 μM), or left unstimulated.
Embryonic human kidney 293 cells were transiently transfected with different combinations of mammalian expression vectors which direct the synthesis of Kv1.2-HA, PYK2, a kinase negative PYK2 (PKN) or the protein tyrosine kinase Fak. The cells were grown for 24 h in the presence of 0.2% serum and then either stimulated with PMA (1.6 μM, 10 min at 37° C.), the calcium ionophore A23187 (6 μM, 10 min at 37° C.) or left unstimulated (−).
Tyrosine phosphorylation of each protein was analysed following immunoprecipitation and immunoblotting with anti-phosphotyrosine antibodies. The expression of each protein was determined by immunoblot analysis of total cell lysates from each transfection with anti-PYK2, anti-HA or anti-Fak antibodies.

[6] = system: Kv1.2 potassium channel; test: Tyrosine phosphorylation of Kv1.2 potassium channel in 293 cells coexpressing PYK2; assay type: cell-based, human; conditions: 293 cells coexpressing Kv1.2-HA and PYK2; PMA 1.6 μM, calcium ionophore 6 μM
[7] = system: PYK-2; test: Tyrosine phosphorylation of PYK-2 in NIH3T3 cell lines that overexpress PYK-2; assay type: cell-based, mouse; conditions: NIH3T3 cells overexpressing PYK-2 / PYK-2-HA; TPA 6 μM, 15 min at 37° C.
Method: Stable cell lines of NIH3T3 that overexpress PYK2 were established by contransfection of PYK2 subcloned into pLSV together with pSV2neo utilizing lipofectamine reagent (GIBCO BRL). Following transfection the cells were grown in Dulbecco's modified Eagle's medium containing 10% fetal bovine serum and 1 mg/ml G418. Transient transfections into 293 cells were performed by using the calcium phosphate technique (*).
The PYK-2 cDNA cloned in PLSV was cotransfected with pSV2neo into PC12 cells and NIH3T3 in order to establish stable cell lines. G418 resistant colonies were screened by immunoprecipitating and immunoblotting.
NIH3T3 cell lines were established that overexpress the PYK-2 and the PYK-2-HA protein. […] The level of phosphorylation is not so high.

[8] = PC12 cells, agent alone, 37° C., b373: TPA 15 min, bradykinin 1 μM 1 min, A23187 2 μM 15 min, KCl 75 mM

Molecule: C[N+]1(C)CCN(c2ccccc2)CC1.[I-] [DMPP, 1,1-dimethyl-4-phenyl piperazinium iodide]
- tyrosine phosphorylation of Shc in response to the agent [1]: induced phosphorylation of Shc

Molecule: O=C(O)CN(CCOCCOCCN(CC(=O)O)CC(=O)O)CC(=O)O [EGTA, ethyleneglycol-bis (P-aminoethyl ether)-N,N,N′N′-teraacetic acid]
- effect on agonist (carbachol) induced tyrosine phosphorylation of PYK2 ([2]; PC12 cells, elimination of extracellular calcium, EGTA 3 mM): completely blocked agonist induced tyrosine phosphorylation of PYK2

Molecule: [Cl-].[K+] [KCl, potassium chloride]
- tyrosine phosphorylation of PYK2 in response to the agent [2, 8]: induces rapid tyrosine phosphorylation of PYK2

Molecule: CCCCCCCCCCCCCC(=O)O[C@@H]1[C@@H](C)[C@@]2(O)[C@@H](C=C(CO)C[C@]3(O)C(=O)C(C)=C[C@@H]23)[C@@H]2C(C)(C)[C@]12OC(C)=O [PMA, phorbol 12-myristate 13-acetate]
- effect of prolonged PMA treatment (down-regulation of PKC) on the agent-stimulated tyrosine phosphorylation of PYK2 ([2]; PC12 cells pretreated with 100 nM PMA for 12 h): completely abolished the effect of PMA
- tyrosine phosphorylation of PYK2 in response to the agent [2, 8]: induced tyrosine phosphorylation of PYK2
- tyrosine phosphorylation of PYK2 in response to the agent ([2]; PC12 cells, agent alone, 37° C., b373: TPA 15 min, bradykinin 1 μM 1 min, A23187 2 μM 15 min, KCl 75 mM, listed as TPA): undergoes tyrosine phosphorylation
- inhibition of Kv1.2 currents [3]: 80-90%
- inhibition of outward current ([4]; oocytes coexpressing Kv1.2 and PYK2): 95%
- inhibition of outward current ([4]; oocytes expressing Kv1.2 alone): 25%
- effect on Kv1.2 currents ([4]; oocytes expressing Kv1.2): caused inhibition of Kv1.2 currents
- tyrosine phosphorylation of PYK2 in response to the agent [5]: induced tyrosine phosphorylation
- tyrosine phosphorylation of Kv1.2 [6]: enhanced

Molecule: CN1[C@@H]2CC[C@H]1C[C@@H](OC(=O)C(CO)c1ccccc1)C2 (stereo partly drawn) [atropine]
- effect on carbachol induced tyrosine phosphorylation of Shc [1]: had no effect

Molecule: CNc1ccc2oc(C[C@H]3O[C@@]4(CC[C@H]3C)O[C@H]([C@H](C)C(=O)c3ccc[nH]3)[C@H](C)C[C@H]4C)nc2c1C(=O)O [calcium ionophore A23187]
- tyrosine phosphorylation of PYK2 in response to the agent [2, 8]: undergoes tyrosine phosphorylation; also recorded: PYK2 is phosphorylated on tyrosine residues
- tyrosine phosphorylation of PYK2 in response to the agent [5]: induced a weaker response
- tyrosine phosphorylation of Kv1.2 [6]: enhanced

Molecule: C[N+](C)(C)CCOC(N)=O [carbachol]
- time after applying the agent at which PYK2 became phosphorylated on tyrosine residues ([2]; PC12 cells): 5 s
- tyrosine phosphorylation of PYK2 in response to the agent [2, 8]: induces strong, tyrosine phosphorylation of PYK2
- time of maximum tyrosine phosphorylation of Shc ([1]; transient, followed by a rapid decline): one

Molecule: CNC1(C)C2CCC(C2)C1(C)C (stereo not drawn) [mecamylamine]
- effect on carbachol induced tyrosine phosphorylation of Shc [1]: blocked the effect of carbachol

Molecule: C[C@@H]1O[C@H](C[N+](C)(C)C)C[C@H]1O [muscarine]
- tyrosine phosphorylation of Shc in response to the agent [1]: had no effect

Molecule: Cholera toxin
- effect on the PYK-2 tyrosine phosphorylation response to TPA / bradykinin [2]: gave higher signal in combination with TPA and bradykinin
- tyrosine phosphorylation of PYK2 in response to the agent [2]: didn't cause phosphorylation of PYK-2 alone

Molecule: PDGF
- tyrosine phosphorylation of PYK-2 in response to the agent [7]: undergoes tyrosine phosphorylation

Molecule: Pertusis toxin: toxin known to positively regulate G-coupled receptor signalling
- tyrosine phosphorylation of PYK2 in response to the agent [2, 8]: didn't cause any response alone
- effect on the PYK-2 tyrosine phosphorylation response to TPA / bradykinin ([2]; PC12 cells, agent in combination with TPA or bradykinin): induced the response of TPA and bradykinin

Molecule: aFGF: growth factor stimulus
- tyrosine phosphorylation of PYK-2 in response to the agent [7]: undergoes tyrosine phosphorylation
